Source: patent US10131652B2, “Pyrimidinyloxy benzene derivatives as herbicides” (E. I. DU PONT DE NEMOURS AND COMPANY, priority 2014, dated 2018)
Where two headings read alike, the source gives them in different places.

Assays:
Type in all cases: in vivo
[1] = system: ducksalad (Heteranthera limosa); test: Test C flooded paddy test plant response; settings: Heteranthera limosa; Flood, 250 g ai/ha; scale of 0 to 100 where 0 is no effect and 100 is complete control; 13 to 15 days; read-out: Ducksalad plant response rating
Method: (§1) Plant species in the flooded paddy test selected from rice (Oryza sativa), small-flower umbrella sedge (Cyperus difformis), ducksalad (Heteranthera limosa), and bamyardgrass (Echinochloa crus-galli) were grown to the 2-leaf stage for testing. At time of treatment, test pots were flooded to 3 cm above the soil surface, treated by application of test compounds directly to the paddy water, and then maintained at that water depth for the duration of the test. Treated plants and controls were maintained in a greenhouse for 13 to 15 days, after which time all species were compared to controls and visually evaluated. Plant response ratings, summarized in Table C, are based on a scale of 0 to 100 where 0 is no effect and 100 is complete control. A dash (-) response means no test result.

[2] = system: barnyardgrass (Echinochloa crus-galli); test: Test C flooded paddy test plant response; settings: Echinochloa crus-galli; Flood, 250 g ai/ha; scale of 0 to 100 where 0 is no effect and 100 is complete control; 13 to 15 days; read-out: Barnyardgrass plant response rating
Method: as §1

[3] = system: small-flower umbrella sedge (Cyperus difformis); test: Test C flooded paddy test plant response; settings: Cyperus difformis; Flood, 250 g ai/ha; scale of 0 to 100 where 0 is no effect and 100 is complete control; 13 to 15 days; read-out: Sedge, Umbrella plant response rating
Method: as §1

[4] = system: rice (Oryza sativa); test: Test C flooded paddy test plant response; settings: Oryza sativa; Flood, 250 g ai/ha; scale of 0 to 100 where 0 is no effect and 100 is complete control; 13 to 15 days; read-out: Rice plant response rating
Method: as §1

[5] = system: blackgrass (Alopecurus myosuroides); test: Test B postemergence plant response
Source text: (§2) At the same time, plants selected from these crop and weed species and also blackgrass (Alopecurus myosuroides), and galium (catchweed bedstraw, Galium aparine) were planted in pots containing the same blend of loam soil and sand and treated with postemergence applications of test chemicals formulated in the same manner. Plants ranged in height from 2 to 10 cm and were in the one- to two-leaf stage for the postemergence treatment. Treated plants and untreated controls were maintained in a greenhouse for approximately 10 days, after which time all treated plants were compared to untreated controls and visually evaluated for injury. Plant response ratings, summarized in Table B, are based on a 0 to 100 scale where 0 is no effect and 100 is complete control. A dash (-) response means no test result.

[6] = system: galium (catchweed bedstraw, Galium aparine); test: Test B postemergence plant response
Source text: as §2

[7] = system: giant foxtail (Setaria faberii); test: Test B pre-/postemergence plant response; settings: for pest or weed control at 500 g/ha: 500 g ai/ha
Source text: as §2, with “Seeds of plant species selected from bamyardgrass (Echinochloa crus-galli), kochia (Kochia scoparia), ragweed (common ragweed, Ambrosia elatior), Italian ryegrass (Lolium multiflorum), large (Lg) crabgrass (Digitaria sanguinalis), giant foxtail (Setaria faberii), momingglory (Ipomoea spp.), pigweed (Amaranthus retroflexus), velvetleaf (Abutilon theophrasti), wheat (Triticum aestivum), and corn (Zea mays) were planted into a blend of loam soil and sand and treated preemergence with a directed soil spray using test chemicals formulated in a non-phytotoxic solvent mixture which included a surfactant. At” for “At”

[8] = system: barnyardgrass (Echinochloa crus-galli); test: Test B pre-/postemergence plant response; settings: for pest or weed control at 500 g/ha: 500 g ai/ha
Source text: as §2, with “Seeds of plant species selected from bamyardgrass (Echinochloa crus-galli), kochia (Kochia scoparia), ragweed (common ragweed, Ambrosia elatior), Italian ryegrass (Lolium multiflorum), large (Lg) crabgrass (Digitaria sanguinalis), giant foxtail (Setaria faberii), momingglory (Ipomoea spp.), pigweed (Amaranthus retroflexus), velvetleaf (Abutilon theophrasti), wheat (Triticum aestivum), and corn (Zea mays) were planted into a blend of loam soil and sand and treated preemergence with a directed soil spray using test chemicals formulated in a non-phytotoxic solvent mixture which included a surfactant. At” for “At”

[9] = system: pigweed (Amaranthus retroflexus); test: Test B pre-/postemergence plant response; settings: for pest or weed control at 500 g/ha: 500 g ai/ha
Source text: as §2, with “Seeds of plant species selected from bamyardgrass (Echinochloa crus-galli), kochia (Kochia scoparia), ragweed (common ragweed, Ambrosia elatior), Italian ryegrass (Lolium multiflorum), large (Lg) crabgrass (Digitaria sanguinalis), giant foxtail (Setaria faberii), momingglory (Ipomoea spp.), pigweed (Amaranthus retroflexus), velvetleaf (Abutilon theophrasti), wheat (Triticum aestivum), and corn (Zea mays) were planted into a blend of loam soil and sand and treated preemergence with a directed soil spray using test chemicals formulated in a non-phytotoxic solvent mixture which included a surfactant. At” for “At”

[10] = system: Italian ryegrass (Lolium multiflorum); test: Test B pre-/postemergence plant response
Source text: as §2, with “Seeds of plant species selected from bamyardgrass (Echinochloa crus-galli), kochia (Kochia scoparia), ragweed (common ragweed, Ambrosia elatior), Italian ryegrass (Lolium multiflorum), large (Lg) crabgrass (Digitaria sanguinalis), giant foxtail (Setaria faberii), momingglory (Ipomoea spp.), pigweed (Amaranthus retroflexus), velvetleaf (Abutilon theophrasti), wheat (Triticum aestivum), and corn (Zea mays) were planted into a blend of loam soil and sand and treated preemergence with a directed soil spray using test chemicals formulated in a non-phytotoxic solvent mixture which included a surfactant. At” for “At”

[11] = system: corn (Zea mays); test: Test B pre-/postemergence plant response; settings: Zea mays, post-emergence, 240 h
Source text: as §2, with “Seeds of plant species selected from bamyardgrass (Echinochloa crus-galli), kochia (Kochia scoparia), ragweed (common ragweed, Ambrosia elatior), Italian ryegrass (Lolium multiflorum), large (Lg) crabgrass (Digitaria sanguinalis), giant foxtail (Setaria faberii), momingglory (Ipomoea spp.), pigweed (Amaranthus retroflexus), velvetleaf (Abutilon theophrasti), wheat (Triticum aestivum), and corn (Zea mays) were planted into a blend of loam soil and sand and treated preemergence with a directed soil spray using test chemicals formulated in a non-phytotoxic solvent mixture which included a surfactant. At” for “At”

[12] = system: ragweed (common ragweed, Ambrosia elatior); test: Test B pre-/postemergence plant response
Source text: as §2, with “Seeds of plant species selected from bamyardgrass (Echinochloa crus-galli), kochia (Kochia scoparia), ragweed (common ragweed, Ambrosia elatior), Italian ryegrass (Lolium multiflorum), large (Lg) crabgrass (Digitaria sanguinalis), giant foxtail (Setaria faberii), momingglory (Ipomoea spp.), pigweed (Amaranthus retroflexus), velvetleaf (Abutilon theophrasti), wheat (Triticum aestivum), and corn (Zea mays) were planted into a blend of loam soil and sand and treated preemergence with a directed soil spray using test chemicals formulated in a non-phytotoxic solvent mixture which included a surfactant. At” for “At”

[13] = system: wheat (Triticum aestivum); test: Test B pre-/postemergence plant response; settings: Triticum aestivum, post-emergence, 240 h, read-out: Plant response rating, Wheat
Source text: as §2, with “Seeds of plant species selected from bamyardgrass (Echinochloa crus-galli), kochia (Kochia scoparia), ragweed (common ragweed, Ambrosia elatior), Italian ryegrass (Lolium multiflorum), large (Lg) crabgrass (Digitaria sanguinalis), giant foxtail (Setaria faberii), momingglory (Ipomoea spp.), pigweed (Amaranthus retroflexus), velvetleaf (Abutilon theophrasti), wheat (Triticum aestivum), and corn (Zea mays) were planted into a blend of loam soil and sand and treated preemergence with a directed soil spray using test chemicals formulated in a non-phytotoxic solvent mixture which included a surfactant. At” for “At”

[14] = system: kochia (Kochia scoparia); test: Test B pre-/postemergence plant response
Source text: as §2, with “Seeds of plant species selected from bamyardgrass (Echinochloa crus-galli), kochia (Kochia scoparia), ragweed (common ragweed, Ambrosia elatior), Italian ryegrass (Lolium multiflorum), large (Lg) crabgrass (Digitaria sanguinalis), giant foxtail (Setaria faberii), momingglory (Ipomoea spp.), pigweed (Amaranthus retroflexus), velvetleaf (Abutilon theophrasti), wheat (Triticum aestivum), and corn (Zea mays) were planted into a blend of loam soil and sand and treated preemergence with a directed soil spray using test chemicals formulated in a non-phytotoxic solvent mixture which included a surfactant. At” for “At”

[15] = 125 g ai/ha, postemergence, 0 to 100 scale, 0 no effect, 100 complete control
[16] = Postemergence, 500 g ai/ha, 0 to 100 scale (0 no effect, 100 complete control)
[17] = Preemergence, 125 g ai/ha, 0 to 100 scale (0 no effect, 100 complete control)
[18] = Preemergence, 500 g ai/ha, 0 to 100 scale where 0 is no effect and 100 is complete control

In the case of `FC(F)(F)c1ccc(-c2c(Cl)cccc2Oc2ncc(Cl)cn2)nc1` [Compound 160, 5-chloro-2-[2-[5-(trifluoromethyl)-2-pyridinyl]-3-chlorophenoxy]pyrimidine], the pest or weed control at 250 g/ha [1] is reported as 0%, the pest or weed control at 250 g/ha [2] is reported as 0% and the pest or weed control at 250 g/ha [3] is reported as 0%. The plant injury at 250 g/ha [4] was 0%, the “Plant response rating, Blackgrass” value [5, 15] was 50 and the “Plant response rating, Blackgrass” value [5, 16] was 90. The “Plant response rating, Galium” value [6, 15] was 70, the “Plant response rating, Galium” value [6, 16] was 100 and the “Foxtail, Giant plant response rating” value [7, 17] was 50. For the same molecule, the pest or weed control at 125 g/ha ([7]; Setaria faberi, post-emergence, 240 h, 125 g ai/ha, postemergence, 0 to 100 scale, 0 no effect, 100 complete control, read-out: Plant response rating, Foxtail, Giant) was 30%, the pest or weed control at 500 g/ha ([7]; Setaria faberi, post-emergence, 240 h, Postemergence, 0 to 100 scale (0 no effect, 100 complete control), read-out: Plant response rating, Foxtail, Giant) was 100% and the pest or weed control at 500 g/ha ([7]; Setaria faberi, pre-emergence, 240 h, Preemergence, 0 to 100 scale where 0 is no effect and 100 is complete control, read-out: Plant response rating, Foxtail, Giant) was 100%. For the same molecule, the pest or weed control at 125 g/ha ([8]; Echinochloa crus-galli, post-emergence, 240 h, 125 g ai/ha, postemergence, 0 to 100 scale, 0 no effect, 100 complete control, read-out: Plant response rating, Barnyardgrass) was 0%, the pest or weed control at 500 g/ha ([8]; Echinochloa crus-galli, post-emergence, 240 h, Postemergence, 0 to 100 scale (0 no effect, 100 complete control), read-out: Plant response rating, Barnyardgrass) was 80% and the pest or weed control at 500 g/ha ([8]; Echinochloa crus-galli, pre-emergence, 240 h, Preemergence, 0 to 100 scale where 0 is no effect and 100 is complete control, read-out: Plant response rating, Barnyardgrass) was 80%. For the same molecule, the “Barnyardgrass plant response rating” value [8, 17] was 0, the pest or weed control at 125 g/ha ([9]; Amaranthus retroflexus, post-emergence, 240 h, 125 g ai/ha, postemergence, 0 to 100 scale, 0 no effect, 100 complete control, read-out: Plant response rating, Pigweed) was 90% and the pest or weed control at 500 g/ha ([9]; Amaranthus retroflexus, post-emergence, 240 h, Postemergence, 0 to 100 scale (0 no effect, 100 complete control), read-out: Plant response rating, Pigweed) was 100%. The pest or weed control at 500 g/ha ([9]; Amaranthus retroflexus, pre-emergence, 240 h, Preemergence, 0 to 100 scale where 0 is no effect and 100 is complete control, read-out: Plant response rating, Pigweed) was 100%, the “Pigweed plant response rating” value [9, 17] was 90 and the “Plant response rating, Ryegrass, Italian” value [10, 15] was 0. The “Plant response rating, Ryegrass, Italian” value [10, 16] was 90, the “Ryegrass, Italian plant response rating” value [10, 17] was 0 and the “Plant response rating, Ryegrass, Italian” value [10, 18] was 0. For the same molecule, the Corn plant response rating (crop injury, 0 = no effect, 100 = complete kill) at 125 g/ha [11, 15] was 30%, the Corn plant response rating (crop injury, 0 = no effect, 100 = complete kill) at 500 g/ha [11, 16] was 90% and the “Plant response rating, Ragweed” value [12, 15] was 0. For the same molecule, the “Plant response rating, Ragweed” value [12, 16] was 30, the “Ragweed plant response rating” value [12, 17] was 0 and the “Plant response rating, Ragweed” value [12, 18] was 0. For the same molecule, the plant injury at 125 g/ha [13, 15] was 20%, the plant injury at 500 g/ha [13, 16] was 80% and the “Plant response rating, Kochia” value [14, 15] was 40. For the same molecule, the “Plant response rating, Kochia” value [14, 16] was 90, the “Kochia plant response rating” value [14, 17] was 30 and the “Plant response rating, Kochia” value [14, 18] was 90.
